Experimental data as given in patent US20250248999A1, “BAVDEGALUTAMIDE AND COMBINATIONS THEREOF FOR USE IN TREATING PROSTATE CANCER” (Arvinas Operations, Inc., priority 2022, published 2025).
Read-outs that look alike come from different tables or passages of the source.

Key:
mCRPC tumor = assay: RECIST response by CT scan in mCRPC patient; type: in vivo, human; conditions: Patient 20, 140 mg/day, after 4 cycles
[1] = tested on: patient-derived xenograft (PDX) model TM00298; assay: Patient-derived xenograft (PDX) model TM00298; type: in vivo, NSG (NOD scid IL2Ry) mice; conditions: Compound (I-g) 10 mg/kg/day PO, enzalutamide 20 mg/kg/day PO
Experimental: The TM00298 PDX was grown in intact (non-castrate) male NSG (NOD scid IL2Ry) mice.

[2] = tested on: human VCaP (Vertebral-Cancer of the Prostate) tumor xenografts; assay: 3-stage efficacy study in castrated mice bearing VCaP tumor xenografts; conditions: for change in body weight: Stage I treatment period, FIG. 16; for Tumor volume, Day 0 / Tumor volume, Day 43 (Stage I) / Tumor volume, Day 92 (Stage III): mean ± SEM; for Tumor volume, Day 92 (Stage III): abiraterone 100 mg/kg or Compound (I-g) 10 mg/kg once daily for 19 days
[3] = 28-day toxicology study in rats
[4] = Phase I dose escalation safety
From the text: A traditional 3+3 dose escalation design was implemented. […] Dose increases were dependent upon toxicities.

clinical = conditions: human, in vivo
CYP3A4 = assay: In vitro CYP3A4 induction; conditions: in vitro data
[5] = tested on: patient-derived xenograft (PDX) model TM00298; conditions: enzalutamide treatment; cited from earlier work
[6] = not given; remark: listed apart in the source
[7] = Stage I, Compound (I-g) 3 mg/kg, abiraterone 100 mg/kg or combination, oral gavage once daily
[8] = Stage III, abiraterone-resistant tumors
[9] = Stage III, abiraterone-resistant tumors, abiraterone 100 mg/kg or Compound (I-g) 10 mg/kg once daily, n = 4

N#Cc1ccc(O[C@H]2CC[C@H](NC(=O)c3ccc(N4CCC(CN5CCN(c6cc7c(cc6F)C(=O)N(C6CCC(=O)NC6=O)C7=O)CC5)CC4)nn3)CC2)cc1Cl (some centres unmarked) [Compound (I-g)]
tumor response on CT scan (mCRPC tumor): RECIST response
reduction of plasma PSA ([1]; vs vehicle): 93%
TGI ([1]; after 20 days, intact male NSG mice): 100%
change in body weight [2]: no significant change in body weight was observed
Tumor volume, Day 0 [2, 7]: 147 ± 8{grave over ( )} mm^3
Tumor volume, Day 43 (Stage I) [2, 7]: 231 ± 26 mm^3
TGI (%) vs Abiraterone (Stage III) ([2]; Stage III, abiraterone-resistant tumors, Compound (I-g) 10 mg/kg once daily for 19 days): growth inhibition was observed
Tumor volume, Day 92 (Stage III) [2, 8]: 305 ± 23 mm^3
Tumor volume, Day 0 [2, 9]: 330 ± 15 mm^3
body weight and food consumption ([3]; 80 mg/kg female rat cohort): lost body weight and consumed less food
reversibility of findings (liver hypertrophy, femur physis thickening) ([3]; male high-dose rats, 14-day recovery): fully reversible
prostate weights ([3]; male rats): decreased prostate weights
tolerability ([3]; rats, oral once daily 28 days, males 20, 60, 120 mg/kg, females 20, 40, 120 mg/kg): well tolerated at all doses, with the exception of the 80 mg/kg female cohort
gastrointestinal alterations (dogs, 3, 10, 30 mg/kg oral once daily, 28 days): Gastrointestinal alterations were observed at all dose levels (including vehicle alone)
prostate weights (male dogs): decreased prostate weights
adverse events at grades 2, 3, or 4 ([4]; 35 mg/day cohort (n=3)): no adverse events at grades 2, 3, or 4 were observed
dose limiting toxicity ([4]; 35 mg/day cohort (n=3)): no dose limiting toxicity was observed
dose limiting toxicity ([4]; 70 mg/day cohort (n=4)): no dose limiting toxicity was observed
grade 2 adverse events ([4]; 70 mg/day cohort (n=4)): One patient experienced grade 2 adverse events (diarrhea, fatigue, vomiting)
grade 3 adverse events ([4]; 70 mg/day cohort (n=4)): One patient experienced a grade 3 adverse event (anemia) that was unrelated to the administration of compound (I-g)
dose limiting toxicity ([4]; 140 mg/day cohort (n=8)): no dose limiting toxicity was observed
patients with grade 2 adverse events ([4]; 140 mg/day cohort (n=8)): 50 % of the patients
dose-limiting toxicity ([4]; 280 mg/day cohort (n=7)): one patient experienced dose-limiting toxicity and renal failure
patients with grade 2 or less adverse events ([4]; 280 mg/day cohort (n=7)): 5 patients
AUC (clinical): 9120 ng·h/mL
AUC(0-t) (clinical): 3030 ng·h/mL
Cmax (clinical): 451 ng/mL
Tmax (clinical): 6 h
CYP3A4 induction (CYP3A4): induces CYP3A4

CNC(=O)c1ccc(N2C(=S)N(c3ccc(C#N)c(C(F)(F)F)c3)C(=O)C2(C)C)cc1F [enzalutamide, reference compound]
PSA reductions, published report (Jin 2017) [5]: modest PSA reductions were observed
TGI, published report (Jin 2017) [5]: no TGI

C[C@]12CC[C@H](O)CC1=CC[C@@H]1[C@@H]2CC[C@]2(C)C(c3cccnc3)=CC[C@@H]12 [Abiraterone, (3S,8R,9S,10R,13S,14S)-10,13-dimethyl-17-(pyridin-3-yl)-2,3,4,7,8,9,10,11,12,13,14,15-dodecahydro-1H-cyclopenta[a]phenanthren-3-ol, reference compound]
change in body weight [2]: no significant change in body weight was observed
TGI (%) vs vehicle (Stage I) ([2]; Stage I, Compound (I-g) 3 mg/kg, abiraterone 100 mg/kg or combination, oral gavage once daily, 43 days): 60%
Tumor volume, Day 0 [2, 7]: 135 ± 10 mm^3
Tumor volume, Day 43 (Stage I) [2, 7]: 262 ± 39 mm^3
Tumor volume, Day 92 (Stage III) [2, 8]: 467 ± 85 mm^3
Tumor volume, Day 0 [2, 9]: 365 ± 44 mm^3
AUC (clinical; Abiraterone AUC0-tau, mean): 417 ng·h/mL
Cmax (clinical; Abiraterone Cmax, mean): 117 ng/mL
reduction in the average abiraterone AUC exposure ([6]; 1000 mg abiraterone given with 420 mg Compound (I-g), preliminary): 22%
drug-drug interaction (DDI) ([6]; abiraterone with Compound (I-g) vs abiraterone alone): no significant DDI was observed
